Target: human A2A receptor (Homo sapiens (Human), UniProt P29274)
Assay: competition binding assay using Scintillation Proximity technology
Conditions: membranes from CHO-K1 cells expressing the human A2a receptor; 2.0 nM tritiated compound; Cheng-Prusoff
Summary of the method: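 Membranes (1.0 μg) from CHO-K1 cells expressing human A2A were treated with adenosine deaminase, then incubated 1 h at room temperature with compound (3000–0.15 nM) and 2.0 nM tritiated SCH-type ligand on WGA SPA beads in PBS plus 10 mM MgCl2. Nonspecific binding was defined with 1 μM CGS 15943. Ki was derived from EC50 via Cheng-Prusoff.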

Chain of human A2A receptor (P29274 whole entry): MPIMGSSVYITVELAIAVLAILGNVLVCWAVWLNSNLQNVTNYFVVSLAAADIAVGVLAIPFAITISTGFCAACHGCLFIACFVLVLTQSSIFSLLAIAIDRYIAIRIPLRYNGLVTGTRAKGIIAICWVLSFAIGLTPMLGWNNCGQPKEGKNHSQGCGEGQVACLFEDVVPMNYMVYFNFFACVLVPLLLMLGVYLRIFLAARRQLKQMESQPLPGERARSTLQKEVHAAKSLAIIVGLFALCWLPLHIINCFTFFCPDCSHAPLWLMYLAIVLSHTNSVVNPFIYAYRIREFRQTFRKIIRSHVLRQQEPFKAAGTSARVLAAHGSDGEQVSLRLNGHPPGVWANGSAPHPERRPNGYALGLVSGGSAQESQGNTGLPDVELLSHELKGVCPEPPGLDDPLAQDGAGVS

Nc1nc2c3c(ccc2c2nc(Cc4cccnc4N4CC[C@@H](c5ccc(C(F)(F)F)cc5)C4)nn12)OC(F)(F)O3 [Example 5, (S)-2,2-difluoro-8-((2-(3-(4-(trifluoromethyl)phenyl)pyrrolidin-1-yl)pyridin-3-yl)methyl)-[1,3]dioxolo[4,5-h][1,2,4]triazolo[1,5-c]quinazolin-5-amine]
Ki: 15 nM

C[C@@H]1CN(CCc2nc3c4ccc5c(c4nc(N)n3n2)OC(F)(F)O5)CCO1 [Example 42, 2,2-difluoro-8-{2-[(2R)-2-methylmorpholin-4-yl]ethyl}[1,3]dioxolo[4,5-h][1,2,4]triazolo[1,5-c]quinazolin-5-amine]
Ki: 11 nM

C[C@H](Cc1nc2c3ccc4c(c3nc(N)n2n1)OC(F)(F)O4)N1CCc2nc(C3CC3)oc2C1 [Example 81, 8-[(2R)-2-(2-cyclopropyl-6,7-dihydro [1,3]oxazolo[5,4-c]pyridin-5(4H)-yl)propyl]-2,2-difluoro[1,3] dioxolo[4,5-h][1,2,4]triazolo[1,5-c]quinazolin-5-amine]
Ki: 2.4 nM

Nc1nc2c3c(ccc2c2nc(CCN4CC(F)(F)C4)nn12)OC(F)(F)O3 [Example 19, 8-[2-(3,3-difluoroazetidin-1-yl)ethyl]-2,2-difluoro[1,3] dioxolo[4,5-h][1,2,4]triazolo [1,5-c]quinazolin-5-amine]
Ki: 3 nM

Nc1nc2c3c(ccc2c2nc(CCN4CCCC45CCNCC5)nn12)OC(F)(F)O3 [Example 55, 8-[2-(1,8-diazaspiro[4.5]dec-1-yl)ethyl]-2,2-difluoro[1,3] dioxolo[4,5-h][1,2,4]triazolo [1,5-c]quinazolin-5-amine]
Ki: 22 nM

CC1N(CCc2nc3c4ccc5c(c4nc(N)n3n2)OC(F)(F)O5)CCCC1(F)F (single isomer, unassigned) [Example 68, (R or S)-8-[2-(3,3-difluoro-2-methylpiperidin-1-yl)ethyl]-2,2-difluoro[1,3]dioxolo[4,5-h][1,2,4] triazolo[1,5-c]quinazolin-5-amine]
Ki: 1.2 nM

Nc1nc2c3c(ccc2c2nc(CCN4CC5CNC[C@H]5C4)nn12)OC(F)(F)O3 (stereo partly drawn) [Example 52, 2,2-difluoro-8-{2-[(3aS)-hexahydropyrrolo[3,4-c]pyrrol-2(1H)-yl]ethyl}[1,3]dioxolo [4,5-h][1,2,4]triazolo[1,5-c]quinazolin-5-amine]
Ki: 40 nM

Nc1nc2c3c(ccc2c2nc(Cn4nc(C(F)(F)F)cc4C(F)(F)F)nn12)OC(F)(F)O3 [Example 130, 8-{[3,5-bis(trifluoromethyl)-1H-pyrazol-1-yl]methyl}-2,2-difluoro [1,3]dioxolo[4,5-h][1,2,4]triazolo [1,5-c]quinazolin-5-amine]
Ki: 3.9 nM

Nc1nc2c3c(ccc2c2nc(C4CCCN(c5cccc(F)c5)C4)nn12)OC(F)(F)O3 (single isomer, unassigned) [Example 143, (R or S)-2,2-difluoro-8-[1-(3-fluorophenyl)piperidin-3-yl][1,3]dioxolo[4,5-h][1,2,4]triazolo[1,5-c]quinazolin-5-amine]
Ki: 59 nM

C[C@@H]1CN(c2ccc(F)cc2)CCN1Cc1nc2c3ccc4c(c3nc(N)n2n1)OC(F)(F)O4 [Example 106, 2,2-difluoro-8-{[(2R)-4-(4-fluorophenyl)-2-methylpiperazin-1-yl]methyl}[1,3]dioxolo[4,5-h][1,2,4] triazolo[1,5-c]quinazolin-5-amine]
Ki: 2.1 nM

CC1=CCN(CCc2nc3c4ccc5c(c4nc(N)n3n2)OC(F)(F)O5)CC1 [Example 41, 2,2-difluoro-8-[2-(4-methyl-3,6-dihydropyridin-1(2H)-yl)ethyl][1,3]dioxolo[4,5-h][1,2,4]triazolo[1,5-c]quinazolin-5-amine]
Ki: 3.8 nM

Nc1nc2c3c(ccc2c2nc(C4CCCN(c5cncnc5)C4)nn12)OC(F)(F)O3 (single isomer, unassigned) [Example 147, (R or S)-2,2-difluoro-8-(1-pyrimidin-5-ylpiperidin-3-yl)[1,3]dioxolo[4,5-h][1,2,4]triazolo[1,5-c]quinazolin-5-amine]
Ki: 2.9 nM

CCC1(F)CN(Cc2nc3c4ccc5c(c4nc(N)n3n2)OC(F)(F)O5)C1 [Example 112, 8-[(3-ethyl-3-fluoroazetidin-1-yl)methyl]-2,2-difluoro[1,3] dioxolo[4,5-h][1,2,4]triazolo[1,5-c]quinazolin-5-amine]
Ki: 2 nM

Nc1nc2c3c(ccc2c2nc(CCN4CCc5nc(C6CC6)oc5C4)nn12)OC(F)(F)O3 [Example 14, 8-[2-(2-cyclopropyl-6,7-dihydro[1,3]oxazolo[5,4-c]pyridin-5(4H)-yl)ethyl]-2,2-difluoro[1,3]dioxolo[4,5-h][1,2,4]triazolo[1,5-c]quinazolin-5-amine]
Ki: 0.9 nM

C[C@@H]1C[C@H](F)CN1CCc1nc2c3ccc4c(c3nc(N)n2n1)OC(F)(F)O4 [Example 22, 2,2-difluoro-8-{2-[(2R,4S)-4-fluoro-2-methylpyrrolidin-1-yl]ethyl}[1,3]dioxolo[4,5-h][1,2,4]triazolo[1,5-c]quinazolin-5-amine]
Ki: 1.5 nM

CC(Cc1nc2c3ccc4c(c3nc(N)n2n1)OC(F)(F)O4)N1CCCC(F)(F)C1 (single isomer, unassigned) [Example 96, (R or S)-8-[2-(3,3-difluoropiperidin-1-yl)propyl]-2,2-difluoro[1,3] dioxolo[4,5-h][1,2,4]triazolo[1,5-c] quinazolin-5-amine]
Ki: 4.1 nM

CC1(F)CN(CCc2nc3c4ccc5c(c4nc(N)n3n2)OC(F)(F)O5)C1 [Example 16, 2,2-difluoro-8-[2-(3-fluoro-3-methylazetidin-1-yl)ethyl] [1,3]dioxolo[4,5-h][1,2,4] triazolo[1,5-c]quinazolin-5-amine]
Ki: 3.2 nM

Nc1nc2c3c(ccc2c2nc(CC(CCl)CCl)nn12)OC(F)(F)O3 [Example 150, 8-[3-chloro-2-(chloromethyl)propyl]-2,2-difluoro[1,3]dioxolo[4,5-h][1,2,4]triiazolo[1,5-c]quinazolin-5-amine]
Ki: 2.3 nM

CC1(C)CCCN(CCc2nc3c4ccc5c(c4nc(N)n3n2)OC(F)(F)O5)C1 [Example 39, 8-[2-(3,3-dimethylpiperidin-1-yl)ethyl]-2,2-difluoro[1,3] dioxolo[4,5-h][1,2,4]triazolo [1,5-c]quinazolin-5-amine]
Ki: 67 nM

Nc1nc2c3c(ccc2c2nc(CCN4Cc5cccnc5C4)nn12)OC(F)(F)O3 [Example 6]
Ki: 6.5 nM

Cc1ncc(CN(CCc2nc3c4ccc5c(c4nc(N)n3n2)OC(F)(F)O5)CC2CC2)s1 [Example 61, 8-(2-{(cyclopropylmethyl)[(2-methyl-1,3-thiazol-5-yl)methyl]amino}ethyl)-2,2-difluoro[1,3]dioxolo[4,5-h][1,2,4]triazolo[1,5-c]quinazolin-5-amine]
Ki: 1.5 nM

Nc1nc2c3c(ccc2c2nc(CCN4CC[C@H](c5ccccc5)C4)nn12)OC(F)(F)O3 [Example 37, 2,2-difluoro-8-{2-[(3R)-3-phenylpyrrolidin-1-yl]ethyl}[1,3]dioxolo[4,5-h][1,2,4]triazolo[1,5-c]quinazolin-5-amine]
Ki: 20 nM

Nc1nc2c3c(ccc2c2nc(CCN4CCC(F)(F)CC4)nn12)OC(F)(F)O3 [Example 30, 8-[2-(4,4-difluoropiperidin-1-yl)ethyl]-2,2-difluoro[1,3] dioxolo[4,5-h][1,2,4]triazolo [1,5-c]quinazolin-5-amine]
Ki: 2.6 nM

CC1(C)CN(CCc2nc3c4ccc5c(c4nc(N)n3n2)OC(F)(F)O5)C1 [Example 33, 8-[2-(3,3-dimethylazetidin-1-yl)ethyl]-2,2-difluoro[1,3]dioxolo [4,5-h][1,2,4]triazolo[1,5-c]quinazolin-5-amine]
Ki: 29 nM

CCc1nnc2n1CCN(CCc1nc3c4ccc5c(c4nc(N)n3n1)OC(F)(F)O5)C2 [Example 10, 8-[2-(3-ethyl-5,6-dihydro[1,2,4]triazolo[4,3-a]pyrazin-7(8H)-yl)ethyl]-2,2-difluoro[1,3]dioxolo[4,5-h][1,2,4]triazolo[1,5-c]quinazolin-5-amine]
Ki: 1.6 nM

Cc1nc2c(s1)CCN([C@H](C)Cc1nc3c4ccc5c(c4nc(N)n3n1)OC(F)(F)O5)C2 [Example 82, 2,2-difluoro-8-[(2R)-2-(2-methyl-6,7-dihydro[1,3]thiazolo[4,5-c]pyridin-5(4H)-yl)propyl][1,3] dioxolo[4,5-h][1,2,4]triazolo [1,5-c]quinazolin-5-amine]
Ki: 1.5 nM

C[C@@H]1CC(F)(F)CCN1CCc1nc2c3ccc4c(c3nc(N)n2n1)OC(F)(F)O4 [Example 31, 8-{2-[(2R)-4,4-difluoro-2-methylpiperidin-1-yl]ethyl}-2,2-difluoro[1,3]dioxolo[4,5-h][1,2,4]triazolo[1,5-c]quinazolin-5-amine]
Ki: 2.2 nM

C[C@@H]1CN(CCc2nc3c4ccc5c(c4nc(N)n3n2)OC(F)(F)O5)C[C@@H](C)O1 [Example 63, 8-{2-[(2R,6R)-2,6-dimethylmorpholin-4-yl]ethyl}-2,2-difluoro[1,3]dioxolo[4,5-h][1,2,4] triazolo[1,5-c]quinazolin-5-amine]
Ki: 36 nM

Cc1nc2c(o1)CN(CCc1nc3c4ccc5c(c4nc(N)n3n1)OC(F)(F)O5)CC2 [Example 12, 2,2-difluoro-8-[2-(2-methyl-6,7-dihydro[1,3]oxazolo[5,4-c]pyridin-5(4H)-yl)ethyl][1,3] dioxolo[4,5-h][1,2,4]triazolo [1,5-c]quinazolin-5-amine]
Ki: 1.5 nM

C[C@H](Cc1nc2c3ccc4c(c3nc(N)n2n1)OC(F)(F)O4)N1CC(C)(F)C1 [Example 84, 2,2-difluoro-8-[(2R)-2-(3-fluoro-3-methylazetidin-1-yl)propyl][1,3] dioxolo[4,5-h][1,2,4]triazolo[1,5-c]quinazolin-5-amine]
Ki: 4.9 nM

Reference: US11046714B2, “2,2-difluorodioxolo A2A receptor antagonists” (Merck Sharp & Dohme Corp., priority 2013, dated 2021)
